Assay results as given in paper PMC10885137, “Site-Directed Mutagenesis of VvCYP76F14 (Cytochrome P450) Unveils Its Potential for Selection in Wine Grape Varieties Linked to the Development of Wine Bouquet” (Journal of Agricultural and Food Chemistry, 2024).
Values belong to the compound of their own block, whether it stands above or below them.

Tests used:
Settings in all cases: 1 mM NADPH, ATR1 reductase, 100 mM Na/K phosphate pH 5.0, 26 °C, 1 h
[1] = target: VvCYP76F14 (from "L35", full-bodied) (Vitis vinifera, UniProt A0A1B2ZBX8, T188A, form not given)
Source text: (§1) UPLC-MS/MS substrate depletion kinetics on VvCYP76F14 (from "L35", full-bodied)

[2] = target: VvCYP76F14 (from "L35", full-bodied) (Vitis vinifera, UniProt A0A1B2ZBX8, G304A, form not given)
Source text: as §1

[3] = target: VvCYP76F14 (from "L35", full-bodied) (Vitis vinifera, UniProt A0A1B2ZBX8, D306A, form not given)
Source text: as §1

[4] = target: VvCYP76F14 (from "L35", full-bodied) (Vitis vinifera, UniProt A0A1B2ZBX8)
Source text: as §1

[5] = target: VvCYP76F14 (from "L35", full-bodied) (Vitis vinifera, UniProt A0A1B2ZBX8, S485A, form not given)
Source text: as §1

[6] = target: VvCYP76F14 (from "L35", full-bodied) (Vitis vinifera, UniProt A0A1B2ZBX8, L298V, form not given)
Source text: as §1

[7] = target: VvCYP76F14 (from "L35", full-bodied) (Vitis vinifera, UniProt A0A1B2ZBX8, I120L, form not given)
Source text: as §1

[8] = target: VvCYP76F14 (from "L35", full-bodied) (Vitis vinifera, UniProt A0A1B2ZBX8, F435A, form not given)
Source text: as §1

Chain of VvCYP76F14 (from "L35", full-bodied) (Vitis vinifera, UniProt A0A1B2ZBX8, S485A, form not given) (A0A1B2ZBX8 entry or part of it S485A, form open): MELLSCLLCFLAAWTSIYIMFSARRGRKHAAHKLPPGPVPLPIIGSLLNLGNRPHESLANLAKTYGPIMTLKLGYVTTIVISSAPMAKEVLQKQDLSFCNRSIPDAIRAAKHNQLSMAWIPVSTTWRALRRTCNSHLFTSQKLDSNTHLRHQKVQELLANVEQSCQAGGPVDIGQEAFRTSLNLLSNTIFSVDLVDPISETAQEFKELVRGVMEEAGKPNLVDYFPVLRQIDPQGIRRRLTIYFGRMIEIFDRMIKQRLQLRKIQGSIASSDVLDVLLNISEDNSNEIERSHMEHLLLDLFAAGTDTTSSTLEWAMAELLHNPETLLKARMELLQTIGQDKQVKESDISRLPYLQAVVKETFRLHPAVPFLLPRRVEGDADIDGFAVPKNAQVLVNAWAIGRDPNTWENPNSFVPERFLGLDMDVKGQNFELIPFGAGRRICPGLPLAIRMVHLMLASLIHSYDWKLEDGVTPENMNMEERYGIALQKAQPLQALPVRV
Chain of VvCYP76F14 (from "L35", full-bodied) (Vitis vinifera, UniProt A0A1B2ZBX8, D306A, form not given) (A0A1B2ZBX8 entry or part of it D306A, form open): as the sequence (A0A1B2ZBX8 entry or part of it S485A, form open) above, with D306A, A485S counted along it
Chain of VvCYP76F14 (from "L35", full-bodied) (Vitis vinifera, UniProt A0A1B2ZBX8, F435A, form not given) (A0A1B2ZBX8 entry or part of it F435A, form open): as the sequence (A0A1B2ZBX8 entry or part of it S485A, form open) above, with F435A, A485S counted along it
Chain of VvCYP76F14 (from "L35", full-bodied) (Vitis vinifera, UniProt A0A1B2ZBX8, G304A, form not given) (A0A1B2ZBX8 entry or part of it G304A, form open): as the sequence (A0A1B2ZBX8 entry or part of it S485A, form open) above, with G304A, A485S counted along it
Chain of VvCYP76F14 (from "L35", full-bodied) (Vitis vinifera, UniProt A0A1B2ZBX8, L298V, form not given) (A0A1B2ZBX8 entry or part of it L298V, form open): as the sequence (A0A1B2ZBX8 entry or part of it S485A, form open) above, with L298V, A485S counted along it
Chain of VvCYP76F14 (from "L35", full-bodied) (Vitis vinifera, UniProt A0A1B2ZBX8, I120L, form not given) (A0A1B2ZBX8 entry or part of it I120L, form open): as the sequence (A0A1B2ZBX8 entry or part of it S485A, form open) above, with I120L, A485S counted along it
Chain of VvCYP76F14 (from "L35", full-bodied) (Vitis vinifera, UniProt A0A1B2ZBX8) (A0A1B2ZBX8 entry or part of it): as the sequence (A0A1B2ZBX8 entry or part of it S485A, form open) above, with A485S counted along it
Chain of VvCYP76F14 (from "L35", full-bodied) (Vitis vinifera, UniProt A0A1B2ZBX8, T188A, form not given) (A0A1B2ZBX8 entry or part of it T188A, form open): as the sequence (A0A1B2ZBX8 entry or part of it S485A, form open) above, with T188A, A485S counted along it

Km [1]: 77.4 ± 8.56 µM
Km [2]: 170 ± 13.6 µM
SMILES: C=CC(C)(O)CC/C=C(\C)CO (centres unmarked) [(E)-8-hydroxylinalool]

Km [3]: 269 ± 17.7 µM
Km [4]: 41.4 ± 4.93 µM
Km [5]: 172 ± 9.99 µM
SMILES: C=CC(C)(O)CC/C=C(\C)C=O (centres unmarked) [(E)-8-oxolinalool]

Km [6]: 74.7 ± 7.89 µM
Km [7]: 156 ± 12.8 µM
Km [8]: 288 ± 19.3 µM
SMILES: C=CC(C)(O)CCC=C(C)C (centres unmarked) [linalool]
